Assay results: patent publication US11040036B2, “Pyruvate kinase activators for use in treating blood disorders” (Agios Pharmaceuticals, Inc., priority 2017, dated 2021)

How the values were obtained:
wild type PKR [1] = biological target: T1, wild type PKR (Homo sapiens, UniProt P30613); test: Cell based ATP assay in purified red blood cells; parameters: endogenous in cells; host or cells: purified red blood cells from blood of healthy volunteers; conditions: RBCs, overnight at 37° C., ATP levels by Cell-Titer-Glo
T1 sequence (P30613 whole entry): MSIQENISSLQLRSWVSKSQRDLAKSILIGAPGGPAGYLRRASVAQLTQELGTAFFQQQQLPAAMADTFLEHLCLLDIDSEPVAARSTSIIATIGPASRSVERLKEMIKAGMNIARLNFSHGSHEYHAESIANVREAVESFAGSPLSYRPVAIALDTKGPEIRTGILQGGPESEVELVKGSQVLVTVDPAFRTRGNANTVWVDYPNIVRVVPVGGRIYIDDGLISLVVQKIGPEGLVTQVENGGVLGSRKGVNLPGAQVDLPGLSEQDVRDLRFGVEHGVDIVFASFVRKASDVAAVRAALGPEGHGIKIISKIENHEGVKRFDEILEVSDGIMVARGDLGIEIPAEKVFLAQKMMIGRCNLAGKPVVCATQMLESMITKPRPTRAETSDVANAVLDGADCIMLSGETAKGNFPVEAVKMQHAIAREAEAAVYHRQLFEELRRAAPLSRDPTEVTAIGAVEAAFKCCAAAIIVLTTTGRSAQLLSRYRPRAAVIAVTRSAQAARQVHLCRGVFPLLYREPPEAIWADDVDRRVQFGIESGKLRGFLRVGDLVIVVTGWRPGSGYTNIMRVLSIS
Description: Example 16. Red Blood Cell (RBC) Purification
Fresh blood drawn from healthy volunteers into K2EDTA tubes was collected. Whole blood was pelleted by spinning at 500 g for 10 minutes. Cut transfusion bag port off of Purecell leukocyte reduction neofilter (Fisher NCO267633) one (1) inch above filter. Attach a 10 ml syringe barrel to the remaining cut tubing attached to neofilter. The plasma layer was removed from the pellet of the whole blood and the pellet was resuspended in 2× volume of phosphate buffered saline (PBS). Transfer 9 ml re-suspended blood cell pellet to prepared 10 ml syringe that is attached to the neofilter. Allow whole blood to gravity flow through filter until all fluid runs through upper tubing into filter disc. Add plunger to the syringe, remove syringe from clamp and invert the filter, then plunge air through the syringe filter system. Using a new 5 ml syringe, remove filtered RBCs from the bag by the syringe port and transfer purified RBCs to a 5 ml snap cap tube that has been incubated on ice. Spin 5 ml snap cap tube at 500 g for 10 minutes at 15 C, aspirate supernatant and resuspend in AGAM (1×PBS, 1% glucose, 170 mg/L adenine, 5.25 g/L mannitol) at a density of 4×10^9 cells/mL.
Example 17. Cell Based ATP Assay
For cell based ATP assays, the compound as described herein was prepared in 100% DMSO as a 10 mM stock. Serial dilutions (1:4) were performed in 96-well V-bottom storage plate and then added 1:100 to 96-well V-bottom plates containing AGAM. RBCs were diluted in AGAM media to a density of 1×10^7 cells/mL before added 90 μL/well to black clear bottom assay plates (final compound concentration at 0.1% DMSO concentration). Assay plates were sealed using aluminum foil seals and incubated overnight at 37° C. in a humidified chamber. ATP levels were read out using Cell-Titer-Glo (Promega).

PKR K410E = PKR K410E (Homo sapiens, UniProt P30613, K410E); test: PKR mutant assay (AC50), PKR K410E; format: biochemical; conditions: PKR K410E mutant enzyme
Chain of PKR K410E (P30613 whole entry K410E): as the sequence (P30613 whole entry) above, with K410E counted along it
Description: (§1) Example 11. PKR Mutant Assay
(§2) PKR or PKR mutant enzyme solution was diluted into a reaction mix, which contains 1× buffer (100 mM KCl, 50 mM Tris pH 7.5, 5 mM MgCl2) as well as PEP (cont depends on enzyme), 180 μM NADH, 0.5 units LDH, 1 mM DTT, 0.03% BSA; final assay concentrations after 1.11 fold dilution are indicated.
(§3) 2 μL of test compound was added into wells first, and then 180 μL reaction mix was added.
(§4) Reactions mixture with test compound was assembled except for ADP, and plates were stored for 60 minutes at room temperature.
(§5) 20 uL ADP was added to start reaction at room temperature and reaction progress was measured as changes in absorbance at 340 nm wavelength at room temperature.
(§6) Test Compound Preparation:
(§7) Test compound stock was made at 100× concentration in 100% DMSO (10 mM)
(§8) 1 to 3 dilutions were made for 11 points (i.e. 50 μl of first concentration added to 100 μl 100% DMSO to yield 3.33 mM, 50 μl of this added to 100 μl DMSO to yield 1.11 mM, and so forth) • 1 to 100 dilution into assay (2 μl in 200 μl) yielded starting concentration of 100 μM, decreasing 3 fold for 11 points.
(§9) Assay Buffer: 100 mM KCl, 50 mM Tris 7.5, 5 mM MgCl2, 1 ruM DTT, 0.03% BSA
(§10) Reaction Mixture: PKR mutant enzyme: 40-400 ng/well; ADP: 0.2-1.65 mM; PEP: 0.1-0.5 mM; NADH:180 μM; LDH: 0.5 units (Sigma #59023); DTT: 1 mM; BSA: 0.03%.

wild type PKR [2] = biological target: T1, wild type PKR; test: PKR mutant assay (AC50), wild type PKR; format: biochemical; conditions: wild type PKR enzyme; for AC50: read-out: PKR WT AC50
Description: as §1, §2, §3, §4, §5, §6, §7, §8, §9, §10

PKR R510Q = PKR R510Q (Homo sapiens, UniProt P30613, R510Q); test: PKR mutant assay (AC50), PKR R510Q; format: biochemical; conditions: PKR R510Q mutant enzyme; for AC50: read-out: PK R510Q AC50
Chain of PKR R510Q (P30613 whole entry R510Q): as the sequence (P30613 whole entry) above, with R510Q counted along it
Description: as §1, §2, §3, §4, §5, §6, §7, §8, §9, §10

Compound	AC50 (wild type PKR [1])	AC50 (PKR K410E)	AC50 (wild type PKR [2])	AC50 (PKR R510Q)	Cell based ATP assay AC50 (wild type PKR [1])	PKR K410E AC50 (PKR K410E)	PKR WT AC50 (wild type PKR [2])	PK R510Q AC50 (PKR R510Q)
Cn1c2nc(Cc3cc[nH]n3)sc2c2cnn(Cc3csc(C(N)=O)n3)c(=O)c21	≤ 1000 nM	< 300 nM	< 300 nM	< 300 nM				
Cn1c2nc(Cc3cc[nH]n3)sc2c2cnn(Cc3cncs3)c(=O)c21	≤ 1000 nM	< 300 nM	< 300 nM	< 300 nM				
Cc1cccc(Cn2ncc3c4sc(Cc5cc[nH]n5)nc4n(C)c3c2=O)n1	≤ 1000 nM	< 300 nM	< 300 nM	< 300 nM				
Cn1c2nc(Cc3cccc(N)n3)sc2c2cnn(Cc3cc[nH]n3)c(=O)c21	≤ 1000 nM	< 300 nM	< 300 nM	< 300 nM				
Cn1c2nc(Cc3cccc(N)n3)sc2c2cnn(Cc3cscn3)c(=O)c21	≤ 1000 nM	< 300 nM	< 300 nM	< 300 nM				
Cn1c2nc(Cc3cc[nH]n3)sc2c2cnn(Cc3c[nH]c(N)n3)c(=O)c21	≤ 1000 nM	< 300 nM	< 300 nM	< 300 nM				
Cn1c2nc(Cc3cc[nH]n3)sc2c2cnn(Cc3[nH]ncc3Cl)c(=O)c21	≤ 1000 nM	< 300 nM	< 300 nM	< 300 nM				
Cn1c2nc(Cc3c[nH]nn3)sc2c2cnn(Cc3csc(N)n3)c(=O)c21	≤ 1000 nM	< 300 nM	< 300 nM	< 300 nM				
Cn1c2nc(Cc3c[nH]nn3)sc2c2cnn(Cc3c[nH]nn3)c(=O)c21	≤ 1000 nM	< 300 nM	< 300 nM	< 300 nM				
Cn1c2nc(Cc3ccccn3)sc2c2cnn(Cc3cccc(N)n3)c(=O)c21	≤ 1000 nM	< 300 nM	< 300 nM	< 300 nM				
Cn1c2nc(Cc3csc(CO)n3)sc2c2cnn(Cc3cn[nH]n3)c(=O)c21	≤ 1000 nM	< 300 nM	< 300 nM	< 300 nM				
Cn1c2nc(C(O)c3cc[nH]n3)sc2c2cnn(Cc3cc[nH]n3)c(=O)c21 (stereo not drawn)	≤ 1000 nM	< 300 nM	< 300 nM	< 300 nM				
Cn1c2nc(Cc3c[nH]nn3)sc2c2cnn(Cc3cccc(N)n3)c(=O)c21	≤ 1000 nM	< 300 nM	< 300 nM	< 300 nM				
Cn1c2nc(Cc3cscn3)sc2c2cnn(Cc3c[nH]nn3)c(=O)c21	≤ 1000 nM	< 300 nM	< 300 nM	< 300 nM				
Cn1c2nc(Cc3cscn3)sc2c2cnn(Cc3cccc(N)n3)c(=O)c21	≤ 1000 nM	< 300 nM	< 300 nM	< 300 nM				
Cn1c2nc(Cc3csc(CO)n3)sc2c2cnn(Cc3cccc(N)n3)c(=O)c21	≤ 1000 nM	< 300 nM	< 300 nM	< 300 nM				
Cn1c2nc(Cc3cc[nH]n3)sc2c2cnn(Cc3n[nH]cc3F)c(=O)c21	≤ 1000 nM	< 300 nM	< 300 nM	< 300 nM				
Cn1c2nc(Cn3cncn3)sc2c2cnn(Cc3cc[nH]n3)c(=O)c21	≤ 1000 nM	< 300 nM	< 300 nM	< 300 nM				
Cn1c2nc(Cn3ccnc3)sc2c2cnn(Cc3cc[nH]n3)c(=O)c21	≤ 1000 nM	< 300 nM	< 300 nM	301 to 800 nM				
Cn1c2nc(Cn3cnnc3)sc2c2cnn(Cc3cc[nH]n3)c(=O)c21	> 1000 nM	> 800 nM	> 800 nM	> 800 nM				
Cn1c2nc(Cc3cc[nH]n3)sc2c2cnn(Cc3ccc(F)c(Br)n3)c(=O)c21	≤ 1000 nM	< 300 nM	< 300 nM	< 300 nM				

Compound	AC50 (wild type PKR [1])	AC50 (PKR K410E)	AC50 (wild type PKR [2])	AC50 (PKR R510Q)	Cell based ATP assay AC50 (wild type PKR [1])	PKR K410E AC50 (PKR K410E)	PKR WT AC50 (wild type PKR [2])	PK R510Q AC50 (PKR R510Q)
Cn1c2nc(Cc3cc[nH]n3)sc2c2cnn(Cc3nc(N)ccc3F)c(=O)c21	≤ 1000 nM	< 300 nM	< 300 nM	< 300 nM				
CN(C)c1cccc(Cn2ncc3c4sc(Cc5cc[nH]n5)nc4n(C)c3c2=O)n1	≤ 1000 nM	< 300 nM	< 300 nM	< 300 nM				
CN(C)c1cccc(Cc2nc3c(s2)c2cnn(Cc4cc[nH]n4)c(=O)c2n3C)n1	≤ 1000 nM	< 300 nM	< 300 nM	< 300 nM				
Cn1c2nc(Cc3ncsc3Cl)sc2c2cnn(Cc3c[nH]nn3)c(=O)c21	≤ 1000 nM	< 300 nM	< 300 nM	< 300 nM				
Cn1c2nc(Cc3ncsc3Cl)sc2c2cnn(Cc3cc[nH]n3)c(=O)c21	≤ 1000 nM	< 300 nM	< 300 nM	< 300 nM				
Cn1c2nc(Cn3cccn3)sc2c2cnn(Cc3cc[nH]n3)c(=O)c21	≤ 1000 nM	< 300 nM	< 300 nM	< 300 nM				
Cn1c2nc([C@H](O)c3cc[nH]n3)sc2c2cnn(Cc3cc[nH]n3)c(=O)c21	≤ 1000 nM	< 300 nM	< 300 nM	< 300 nM				
Cn1c2nc([C@@H](O)c3cc[nH]n3)sc2c2cnn(Cc3cc[nH]n3)c(=O)c21	≤ 1000 nM	< 300 nM	< 300 nM	< 300 nM				
Cn1c2nc(Cc3cc[nH]n3)sc2c2cnn(Cc3cc(Cl)[nH]n3)c(=O)c21	≤ 1000 nM	< 300 nM	< 300 nM	< 300 nM				
COc1ccc(Cn2ncc3c4sc(Cc5cc[nH]n5)nc4n(C)c3c2=O)nc1N	≤ 1000 nM	< 300 nM	< 300 nM	< 300 nM				
Cn1c2nc(Cc3cc[nH]n3)sc2c2cnn(Cc3ccsn3)c(=O)c21	≤ 1000 nM	< 300 nM	< 300 nM	< 300 nM				
Cn1nncc1Cn1ncc2c3sc(Cc4cc[nH]n4)nc3n(C)c2c1=O	> 1000 nM	> 800 nM	> 800 nM	> 800 nM				
Cn1c2nc(Cc3nc(N)ccc3F)sc2c2cnn(Cc3cc[nH]n3)c(=O)c21	≤ 1000 nM	< 300 nM	< 300 nM	< 300 nM				
Cn1ncc(Cn2ncc3c4sc(Cc5cc[nH]n5)nc4n(C)c3c2=O)n1	≤ 1000 nM	< 300 nM	< 300 nM	< 300 nM				
Cn1ccc(Cn2ncc3c4sc(Cc5cccc(N)n5)nc4n(C)c3c2=O)n1	≤ 1000 nM	< 300 nM	< 300 nM	< 300 nM				
Cn1ccc(Cc2nc3c(s2)c2cnn(Cc4ccn[nH]4)c(=O)c2n3C)n1	≤ 1000 nM	< 300 nM	< 300 nM	< 300 nM				
Cc1scnc1Cc1nc2c(s1)c1cnn(Cc3ccn[nH]3)c(=O)c1n2C	≤ 1000 nM	< 300 nM	< 300 nM	< 300 nM				
Cn1c2nc(Cc3nc(N)sc3F)sc2c2cnn(Cc3cc[nH]n3)c(=O)c21	≤ 1000 nM	< 300 nM	< 300 nM	< 300 nM				
Cn1c2nc(Cn3ccc([N+](=O)[O-])n3)sc2c2cnn(Cc3cc[nH]n3)c(=O)c21	≤ 1000 nM	< 300 nM	< 300 nM	< 300 nM				
Cn1c2nc(Cn3ccnn3)sc2c2cnn(Cc3cc[nH]n3)c(=O)c21	≤ 1000 nM	< 300 nM	< 300 nM	< 300 nM				
Cn1c2nc(Cn3cncn3)sc2c2cnn(Cc3n[nH]c(=O)[nH]3)c(=O)c21					No Fit	No Fit	No Fit	No Fit
